Assay results reported in patent US4247706A, “Dibenzothiepin derivatives and a process for producing the same” (Nippon Chemiphar Co., Ltd., priority 1978, dated 1981).

Experiments:
[1] = test system: edema in the hind paws (carrageenan); assay: Antiinflammatory effect: carrageenan-induced edema of the hind paws; format: in vivo, Male Wister rats; conditions: oral, rat; for Inhibition (%) (after 3 hours): 1% carrageenan edema
Procedure: Male Wister rats each weighing about 100 g, one group consisting of 5 to 7 rats, were orally given test compounds, and edema was then induced in the hind paws by a subcutaneous injection of 0.1 ml of a 1% carrageenan saline solution one hour after the administration of the test compounds. With a predetermined lapse of time, the volumes of the hind paws were measured by a volume differential meter. Indomethacin was used as an active placebo.

[2] = test system: writhing syndromes (acetic acid); assay: Analgesic effect: acetic acid-induced writhing syndromes; format: in vivo, dd Male mice; conditions: oral, mouse, 0.6% acetic acid writhing within 20 minutes
Procedure: dd Male mice each weighing 18 to 22 g, one group consisting of 10 mice, were given by an intraperitoneal injection of 0.6% acetic acid in a dosage of 0.1 ml/10 g/body weight. The number of writhing syndromes occurring within 20 minutes after the injection was observed. These animals were given orally test compounds suspended in a 0.2% carboxymethylcellulose solution 30 minutes before the injection of acetic acid. The inhibitory percentage of each of the test compounds was calculated in comparison with a control in which a 0.2% carboxymethylcellulose solution only was given. Aspirin was used as an active placebo.

[3] = LD50 by the Lichfield-Wilcoxon method; conditions: rat, in vivo, rats
Text: This fact confirms the excellent effects of the present compounds.

Structure (SMILES) | Antiinflammatory activity (ratio to Indomethacin) [1] | Analgesic activity (ratio to Aspirin) [2] | Inhibition (%) (after 3 hours) ([1]; 2 mg/kg) | LD50 [3] [mg/kg] | Inhibition (%) (after 3 hours) ([1]; 4 mg/kg)
O=C(O)Cc1ccc2c(c1)CC(=O)c1ccccc1S2 [Comparative compound A] | 0.01 | 1 | – | – | –
O=C(O)Cc1ccc2c(c1)Sc1ccccc1C(=O)C2 [Comparative compound B] | 0.01 | 1 | – | – | –
CC(C(N)=O)c1ccc2c(c1)CC(=O)c1ccccc1S2 (centres unmarked) [Compound 1, 2-(10,11-Dihydro-10-oxodibenzo[b,f]thiepin-2-yl)-propionamide] | – | – | 52.5 | – | –
CC(C(=O)O)c1ccc2c(c1)CC(=O)c1ccccc1S2 (centres unmarked) [Compound 2, 2-(10,11-Dihydro-10-oxodibenzo[b,f]thiepin-2-yl)-propionic acid] | 2 | 20 | 55.8 | 232 | –
COc1ccc2c(c1)c(CC(=O)O)c(C)n2C(=O)c1ccc(Cl)cc1 [Indomethacin] | – | – | 35.9 | – | 51.9
